# Experimental data reported in patent publication US20170066759A1, “AROMATIC 5-MEMBERED HETEROCYCLIC DERIVATIVE HAVING TRPV4-INHIBITING ACTIVITY” (Shionogi & Co., Ltd., priority 2012, published 2017).
# Biological target: T1, human TRPV4 (hTRPV4/CHO cells) (Homo sapiens, UniProt Q9HBA0)
# T1 construct: expressed in transfected cells; host or cells: CHO-K1
# Experiment: Test Example 1: TRPV4 inhibitory activity (IC50 value), 4α-PDD stimulation, Fluo4 calcium fluorescence (FLIPR TETRA)
# Format: cell-based
# Settings: 1 μmol/L 4α-PDD, Fluo4-AM, read-out: TRPV4 inhibitory activity (IC50 value)
# T1 sequence (Q9HBA0 whole entry): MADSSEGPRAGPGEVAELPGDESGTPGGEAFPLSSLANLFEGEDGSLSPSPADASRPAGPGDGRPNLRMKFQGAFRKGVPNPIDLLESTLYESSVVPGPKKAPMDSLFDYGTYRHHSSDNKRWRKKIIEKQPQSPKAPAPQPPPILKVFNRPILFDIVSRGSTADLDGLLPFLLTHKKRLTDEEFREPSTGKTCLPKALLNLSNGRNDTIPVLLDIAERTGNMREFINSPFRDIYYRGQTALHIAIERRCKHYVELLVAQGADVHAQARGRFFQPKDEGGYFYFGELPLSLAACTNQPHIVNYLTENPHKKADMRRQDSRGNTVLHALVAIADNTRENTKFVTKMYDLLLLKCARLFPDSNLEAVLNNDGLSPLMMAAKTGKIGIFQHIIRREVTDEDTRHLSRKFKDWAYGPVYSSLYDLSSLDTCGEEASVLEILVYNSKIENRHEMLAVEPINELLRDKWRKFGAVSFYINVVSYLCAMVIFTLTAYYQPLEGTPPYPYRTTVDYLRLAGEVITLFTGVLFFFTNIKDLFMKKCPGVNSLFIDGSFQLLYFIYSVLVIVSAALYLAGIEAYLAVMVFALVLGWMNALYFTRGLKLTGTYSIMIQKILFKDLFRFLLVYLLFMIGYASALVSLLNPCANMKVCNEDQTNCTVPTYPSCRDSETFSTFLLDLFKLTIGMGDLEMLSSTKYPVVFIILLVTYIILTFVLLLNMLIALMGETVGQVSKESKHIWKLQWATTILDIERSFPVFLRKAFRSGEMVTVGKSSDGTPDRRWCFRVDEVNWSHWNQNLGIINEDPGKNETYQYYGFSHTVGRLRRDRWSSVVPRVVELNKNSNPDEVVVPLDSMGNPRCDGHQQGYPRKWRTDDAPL
row,IC50 [nM],Structure (SMILES)
1,30,Cc1nc(C)c(-c2csc(NC(=O)Cc3ccc(S(=O)(=O)N4CCCCC4)cc3)n2)s1 [Compound I-156]

# Same assay, conditions: Test Example 1, 4α-PDD stimulation, read-out: Test 1 IC50
row,Structure (SMILES),IC50 [nM]
1,Cc1nc(C(O)CO)sc1-c1csc(NC(=O)Cc2c(F)cccc2F)n1 (centres unmarked) [Compound I-133],1000 to 8000
2,Cc1nc(C)c(-c2csc(NC(=O)[C@@H]3C[C@H](c4ccccc4)CN3)n2)s1 [Compound I-179],1000 to 8000
3,O=C(Cc1ccc(S(=O)(=O)C(F)(F)F)cc1)Nc1nc(-c2sc(CO)nc2CN2CCOC2=O)cs1 [Compound I-483],100 to 1000
4,Cc1nc(C)c(-c2csc(NC(=O)Cn3cc(-c4ccccc4S(C)(=O)=O)cn3)n2)s1 [Compound I-166],100 to 1000
5,CC(=O)c1nc(C)c(-c2csc(NC(=O)Cc3c(F)cccc3F)n2)s1 [Compound I-98],100 to 1000
6,Cc1nc(COC(N)=O)sc1-c1csc(NC(=O)Cc2ccc(S(=O)(=O)C(F)(F)F)cc2)n1 [Compound I-378],100 to 1000
7,Cc1nc(CO)sc1-c1csc(NC(=O)Cn2cnc(C(F)(F)F)c2)n1 [Compound I-406],1000 to 8000
8,COC(=O)c1cccc(CC(=O)Nc2nc(-c3sc(C)nc3C)cs2)n1 [Compound I-509],100 to 1000
9,Cc1nc(C)c(-c2csc(Nc3cccnc3)n2)s1 [II-40],100 to 1000
10,COC(=O)c1ccc(CN2CC(C(=O)Nc3nc(-c4sc(C)nc4C)cs3)C2)cc1 [Compound I-263],100 to 1000
11,Cc1nc(CS(=O)(=O)C(F)(F)F)c(-c2csc(NC(=O)Cc3ccc(S(=O)(=O)C(F)(F)F)cc3)n2)s1 [Compound I-486],100 to 1000
12,CC(=O)N(C)Cc1nc(CO)sc1-c1csc(NC(=O)Cc2ccc(S(=O)(=O)C(F)(F)F)cc2)n1 [Compound I-393],100 to 1000
13,O=C(Nc1nc(-c2sc(CO)nc2CO)cs1)[C@H]1C[C@@H](OCc2ccc(Cl)cc2)C1 [Compound I-332],100 to 1000
14,Cc1nc(C)c(-c2csc(NC(=O)[C@H]3C[C@@H](c4ccccc4)CN3)n2)s1 [Compound I-193],1000 to 8000
15,Cc1nc(C)c(-c2csc(NC(=O)C3CC3(F)F)n2)s1 (centres unmarked) [Compound I-120],1000 to 8000
16,Cc1nc(C)c(-c2nc(NC(=O)Cc3c(F)cccc3F)sc2-c2ccncc2)s1 [Compound I-60],1000 to 8000
17,Cc1nc(C(=O)NCCO)sc1-c1csc(NC(=O)Cc2c(F)cccc2F)n1 [Compound I-125],1000 to 8000
18,Cc1nc(C)c(-c2csc(NC(=O)Cc3ccc(S(C)(=O)=O)cc3)n2)s1 [Compound I-119],1000 to 8000
19,Cc1nc(C)c(-c2nc(NC(=O)Cc3c(F)cccc3F)sc2-c2cccnc2)s1 [Compound I-63],1000 to 8000
20,Cc1nc(C)c(-c2nc(NC(=O)Cc3c(F)cccc3F)sc2I)s1 [Compound I-65],1000 to 8000
21,COCc1nc(C)c(-c2csc(NC(=O)Cc3ccc(S(=O)(=O)C(F)(F)F)cc3)n2)s1 [Compound I-459],100 to 1000

row,Structure (SMILES),IC50 [nM]
1,Cc1nc(C)c(-c2csc(NC(=O)Cc3cc(OCCO)cc(C(=O)N[C@H](c4ccccc4)C(F)(F)F)c3)n2)s1 [Compound I-515],100 to 1000
2,Cc1nc(C)c(-c2csc(NC(=O)Cn3cc(-c4ccccn4)nn3)n2)s1 [Compound I-426],1000 to 8000
3,Cc1nc(C)c(-c2csc(NC(=O)C3CN(CC(F)(F)F)C3)n2)s1 [Compound I-281],100 to 1000
4,Cc1nc(C(=O)NCCN(C)C)sc1-c1csc(NC(=O)Cc2c(F)cccc2F)n1 [Compound I-126],1000 to 8000
5,Cc1nc(C)c(-c2csc(NC(=O)CN3CCC(c4ccccc4)CC3)n2)s1 [Compound I-152],100 to 1000
6,Cc1nc(C(F)F)sc1-c1csc(NC(=O)Cn2cc(Cl)cn2)n1 [Compound I-110],100 to 1000
7,CNC(=N)c1nc(C)c(-c2csc(NC(=O)Cc3ccc(S(=O)(=O)C(F)(F)F)cc3)n2)s1 [Compound I-441],100 to 1000
8,Cc1nc(C(=N)N)sc1-c1csc(NC(=O)Cc2ccc(S(=O)(=O)C(F)(F)F)cc2)n1 [Compound I-404],100 to 1000
9,Cc1nc(CO)sc1-c1csc(NC(=O)/C=C/c2ccccc2)n1 [Compound I-462],100 to 1000
10,Cc1nc(C)c(-c2csc(NC(=O)[C@@H]3C[C@@H](Oc4ccccc4)CN3C(=O)OC(C)(C)C)n2)s1 [Compound I-242],< 100
11,Cc1nc(CO)sc1-c1csc(NC(=O)C2CC(OCC3CC3)C2)n1 (centres unmarked) [Compound I-333],1000 to 8000
12,Cc1nc(C)c(-c2csc(NC(=O)[C@H]3C[C@H](N(C)Cc4ccc(C(F)(F)F)cc4)C3)n2)s1 [Compound I-368],< 100
13,Cc1nc(C)c(-c2nc(NC(=O)Cc3c(F)cccc3F)sc2-c2ccccc2Cl)s1 [Compound I-66],1000 to 8000
14,Cc1nc(C)c(-c2csc(NC(=O)Cn3cc(-c4cccc(N(C)C)c4)cn3)n2)s1 [Compound I-149],< 100
15,Cc1nc(C)c(-c2csc(NC(=O)C3(CC(=O)OC(C)(C)C)CN(c4ccc(C(F)(F)F)cc4)C3)n2)s1 (racemic) [Compound I-519],< 100
16,COc1ccc(N2CC(C(=O)Nc3nc(-c4sc(CO)nc4C)cs3)CC2=O)cc1 (centres unmarked) [Compound I-200],1000 to 8000
17,Cc1nc(CO)sc1-c1csc(NC(=O)C2CN(c3ncc(C(F)(F)F)cn3)C2)n1 [Compound I-307],< 100
18,O=C(Cc1ccc(S(=O)(=O)CC(F)(F)F)cc1)Nc1nc(-c2cccs2)cs1 [II-6],100 to 1000
19,Cc1nc(C)c(-c2csc(NC(=O)CN3CCC(c4ccccc4)C3)n2)s1 (centres unmarked) [Compound I-155],100 to 1000
20,COCCOc1cc(CC(=O)Nc2nc(-c3sc(C)nc3C)cs2)cc(C(=O)N[C@H](c2ccccc2)C(F)(F)F)c1 [Compound I-513],< 100

# Other lines, results leading:
row,IC50 [nM],Structure (SMILES)
1,< 100,Cc1nc(CO)sc1-c1csc(NC(=O)[C@H]2C[C@@H](N(C)Cc3ccc(C(F)(F)F)cc3)C2)n1 [Compound I-318]
2,< 100,Cc1nc(C)c(-c2csc(NC(=O)Cc3cccc(S(=O)(=O)Nc4ccccc4F)c3)n2)s1 [Compound I-501]
3,< 100,Cc1nc(CO)sc1-c1csc(NC(=O)[C@H]2C[C@H](F)C2)n1 [Compound I-202]
4,< 100,Cc1nc(C)c(-c2csc(NC(=O)Cn3cc(-c4cccc(S(C)(=O)=O)c4)cn3)n2)s1 [Compound I-150]
5,< 100,Cc1nc(CO)sc1-c1csc(NC(=O)[C@@H]2C[C@@H](c3ccccc3)CN2C(=O)C(C)(C)F)n1 [Compound I-328]
6,< 100,Cc1nc(C)c(-c2csc(NC(=O)[C@@H]3C[C@@H](N4CCC(c5ccccc5)CC4)CN3C(=O)C(F)(F)F)n2)s1 [Compound I-276]
7,< 100,COc1ccc(N(C)S(=O)(=O)c2ccc(CC(=O)Nc3nc(-c4sc(C)nc4C)cs3)cc2)cc1 [Compound I-158]
8,< 100,O=C(Cc1ccc(S(=O)(=O)C(F)(F)F)cc1)Nc1nc(-c2sc(CO)nc2CNC(=O)C2(C(F)(F)F)CC2)cs1 [Compound I-439]
9,< 100,Cc1nc(C)c(-c2csc(NC(=O)[C@@H]3C[C@@H](c4ccccc4)CN3C(=O)OC(C)(C)C)n2)s1 [Compound I-210]
10,< 100,Cc1nc(C)c(-c2csc(NC(=O)Cc3cccc(OC(F)(F)F)c3)n2)s1 [Compound I-100]
11,< 100,Cc1nc(C)c(-c2csc(NC(=O)Cn3cc(-c4ccc(Cl)cc4)cn3)n2)s1 [Compound I-147]
12,< 100,O=C(Nc1nc(-c2sc(CO)nc2CCCN2CCOCC2)cs1)C1CN(c2ccc(C(F)(F)F)cc2)C1 [Compound I-352]
13,< 100,Cc1nc(C)c(-c2csc(NC(=O)C3CN(Cc4cccc(C(F)(F)F)c4)C3)n2)s1 [Compound I-262]
14,< 100,Cc1nc(CO)sc1-c1csc(NC(=O)C2CC(c3ccccc3)C2)n1 (centres unmarked) [Compound I-547]
15,< 100,Cc1nc(C)c(-c2csc(NC(=O)Cc3cccc(S(=O)(=O)N[C@H](c4ccccc4)C(F)(F)F)c3)n2)s1 [Compound I-499]
16,< 100,Cc1nc(C)c(-c2csc(NC(=O)Cc3cccc(S(=O)(=O)NCC(F)(F)F)c3)n2)s1 [Compound I-502]
17,< 100,Cc1nc(C)c(-c2csc(NC(=O)Cc3ccc(S(=O)(=O)N(C)c4ccc(C#N)cc4)cc3)n2)s1 [Compound I-163]
18,< 100,Cc1nc(C)c(-c2csc(NC(=O)Cc3ccc(S(=O)(=O)N4CCCCC4)cc3)n2)s1 [Compound I-156]
19,< 100,Cc1nc(CO)sc1-c1csc(NC(=O)[C@@H]2C[C@@H](c3ccccc3)CN2C(=O)OC(C)C)n1 [Compound I-315]
20,< 100,Cc1nc(CO)sc1-c1csc(NC(=O)C2CC3(CCC3)C2)n1 [Compound I-450]
